Experimental data reported in the NIST ThermoML archive (doi:10.1021/acs.jced.8b01048).
Numbers after ± are expanded uncertainties.

Tests used:
[1] = 100 kPa, Liquid, Vibrating tube method
[2] = xn = mol fraction of the nth substance listed; details: 100 kPa, Liquid, Vibrating tube method

Work on `CC(=O)[O-].CCn1cc[n+](C)c1` [1-ethyl-3-methylimidazolium acetate] yielded a mass density ([1]; 293.15 K) of 1101.7 ± 0.5 kg/m3, a mass density ([1]; 303.15 K) of 1095.6 ± 0.5 kg/m3 and a mass density ([1]; 313.15 K) of 1089.6 ± 0.5 kg/m3. It also gave a mass density ([1]; 323.15 K) of 1083.7 ± 0.5 kg/m3, a mass density ([1]; 333.15 K) of 1077.7 ± 0.5 kg/m3 and a mass density ([1]; 343.15 K) of 1071.8 ± 0.5 kg/m3. For the same compound, the mass density ([1]; 353.15 K) was 1065.9 ± 0.5 kg/m3, the mass density ([1]; 363.15 K) was 1060 ± 0.5 kg/m3 and the mass density ([1]; 373.15 K) was 1054.2 ± 0.5 kg/m3.
`CC(=O)[O-].CCn1cc[n+](C)c1` [1-ethyl-3-methylimidazolium acetate] + O gave a mass density ([2]; 293.15 K, x2 = 0.018) of 1101.7 ± 0.5 kg/m3, a mass density ([2]; 303.15 K, x2 = 0.018) of 1095.6 ± 0.5 kg/m3 and a mass density ([2]; 313.15 K, x2 = 0.018) of 1089.6 ± 0.5 kg/m3. It also gave a mass density ([2]; 323.15 K, x2 = 0.018) of 1083.7 ± 0.5 kg/m3, a mass density ([2]; 333.15 K, x2 = 0.018) of 1077.7 ± 0.5 kg/m3 and a mass density ([2]; 343.15 K, x2 = 0.018) of 1071.8 ± 0.5 kg/m3. It also gave a mass density ([2]; 353.15 K, x2 = 0.018) of 1065.9 ± 0.5 kg/m3, a mass density ([2]; 363.15 K, x2 = 0.018) of 1060 ± 0.5 kg/m3 and a mass density ([2]; 373.15 K, x2 = 0.018) of 1054.2 ± 0.5 kg/m3.
With `CC(=O)[O-].C[N+](C)(C)CCO` [choline acetate] + C[S+](C)[O-] the mass density ([2]; 293.15 K, x2 = 0.899) was 1102.7 ± 0.5 kg/m3, the mass density ([2]; 303.15 K, x2 = 0.899) was 1093.9 ± 0.5 kg/m3 and the mass density ([2]; 313.15 K, x2 = 0.799) was 1086 ± 0.5 kg/m3. It also gave a mass density ([2]; 313.15 K, x2 = 0.899) of 1085.1 ± 0.5 kg/m3, a mass density ([2]; 323.15 K, x2 = 0.701) of 1079.6 ± 0.5 kg/m3 and a mass density ([2]; 323.15 K, x2 = 0.799) of 1077.9 ± 0.5 kg/m3. For the same compound, the mass density ([2]; 323.15 K, x2 = 0.899) was 1076.3 ± 0.5 kg/m3, the mass density ([2]; 333.15 K, x2 = 0.598) was 1073.6 ± 0.5 kg/m3 and the mass density ([2]; 333.15 K, x2 = 0.701) was 1072.3 ± 0.5 kg/m3. It also gave a mass density ([2]; 333.15 K, x2 = 0.799) of 1070 ± 0.5 kg/m3, a mass density ([2]; 333.15 K, x2 = 0.899) of 1067.4 ± 0.5 kg/m3 and a mass density ([2]; 343.15 K, x2 = 0.503) of 1067.3 ± 0.5 kg/m3. It also gave a mass density ([2]; 343.15 K, x2 = 0.598) of 1066.7 ± 0.5 kg/m3, a mass density ([2]; 343.15 K, x2 = 0.701) of 1065 ± 0.5 kg/m3 and a mass density ([2]; 343.15 K, x2 = 0.799) of 1061.8 ± 0.5 kg/m3. For the same compound, the mass density ([2]; 343.15 K, x2 = 0.899) was 1058.6 ± 0.5 kg/m3, the mass density ([2]; 353.15 K, x2 = 0.503) was 1060.8 ± 0.5 kg/m3 and the mass density ([2]; 353.15 K, x2 = 0.598) was 1059.8 ± 0.5 kg/m3. For the same compound, the mass density ([2]; 353.15 K, x2 = 0.701) was 1057.6 ± 0.5 kg/m3, the mass density ([2]; 353.15 K, x2 = 0.799) was 1053.8 ± 0.5 kg/m3 and the mass density ([2]; 353.15 K, x2 = 0.899) was 1049.8 ± 0.5 kg/m3. For the same compound, the mass density ([2]; 363.15 K, x2 = 0.503) was 1054.6 ± 0.5 kg/m3, the mass density ([2]; 363.15 K, x2 = 0.598) was 1053 ± 0.5 kg/m3 and the mass density ([2]; 363.15 K, x2 = 0.701) was 1050.4 ± 0.5 kg/m3. For the same compound, the mass density ([2]; 363.15 K, x2 = 0.799) was 1045.6 ± 0.5 kg/m3, the mass density ([2]; 363.15 K, x2 = 0.899) was 1040.9 ± 0.5 kg/m3 and the mass density ([2]; 373.15 K, x2 = 0.503) was 1048.4 ± 0.5 kg/m3. The mass density ([2]; 373.15 K, x2 = 0.598) was 1046.4 ± 0.5 kg/m3, the mass density ([2]; 373.15 K, x2 = 0.701) was 1043.3 ± 0.5 kg/m3 and the mass density ([2]; 373.15 K, x2 = 0.799) was 1037.6 ± 0.5 kg/m3. It also gave a mass density ([2]; 373.15 K, x2 = 0.899) of 1032.3 ± 0.5 kg/m3.
`C[S+](C)[O-]` [dimethyl sulfoxide] showed a mass density ([1]; 293.15 K) of 1100.2 ± 1.1 kg/m3, a mass density ([1]; 303.15 K) of 1090.2 ± 1.1 kg/m3 and a mass density ([1]; 313.15 K) of 1080.4 ± 1 kg/m3. It also gave a mass density ([1]; 323.15 K) of 1070.2 ± 1 kg/m3, a mass density ([1]; 333.15 K) of 1060.3 ± 1 kg/m3 and a mass density ([1]; 343.15 K) of 1050.2 ± 1 kg/m3. For the same compound, the mass density ([1]; 353.15 K) was 1040.2 ± 1 kg/m3, the mass density ([1]; 363.15 K) was 1029.9 ± 1 kg/m3 and the mass density ([1]; 373.15 K) was 1019.8 ± 0.9 kg/m3.
For `C[S+](C)[O-]` [dimethyl sulfoxide] + CC(=O)[O-].CCn1cc[n+](C)c1, the mass density ([2]; 293.15 K, x1 = 1) was 1100.2 ± 0.5 kg/m3, the mass density ([2]; 303.15 K, x1 = 1) was 1090.2 ± 0.5 kg/m3 and the mass density ([2]; 313.15 K, x1 = 1) was 1080.4 ± 0.5 kg/m3. The mass density ([2]; 323.15 K, x1 = 1) was 1070.2 ± 0.5 kg/m3, the mass density ([2]; 333.15 K, x1 = 1) was 1060.3 ± 0.5 kg/m3 and the mass density ([2]; 343.15 K, x1 = 1) was 1050.2 ± 0.5 kg/m3. It also gave a mass density ([2]; 353.15 K, x1 = 1) of 1040.2 ± 0.5 kg/m3, a mass density ([2]; 363.15 K, x1 = 1) of 1029.9 ± 0.5 kg/m3 and a mass density ([2]; 373.15 K, x1 = 1) of 1019.8 ± 0.5 kg/m3.
Work on `C[S+](C)[O-]` [dimethyl sulfoxide] + O yielded a mass density ([2]; 293.15 K, x1 = 0.998) of 1100.2 ± 1.1 kg/m3, a mass density ([2]; 303.15 K, x1 = 0.998) of 1090.2 ± 1.1 kg/m3 and a mass density ([2]; 313.15 K, x1 = 0.998) of 1080.4 ± 1 kg/m3. It also gave a mass density ([2]; 323.15 K, x1 = 0.998) of 1070.2 ± 1 kg/m3, a mass density ([2]; 333.15 K, x1 = 0.998) of 1060.3 ± 1 kg/m3 and a mass density ([2]; 343.15 K, x1 = 0.998) of 1050.2 ± 1 kg/m3. The mass density ([2]; 353.15 K, x1 = 0.998) was 1040.2 ± 1 kg/m3, the mass density ([2]; 363.15 K, x1 = 0.998) was 1029.9 ± 1 kg/m3 and the mass density ([2]; 373.15 K, x1 = 0.998) was 1019.8 ± 0.9 kg/m3.
